Laboratory results taken from patent US11447454B2, “Synthesis of benzodiazepine derivatives” (Trio Medicines Limited, priority 2015, dated 2022).

Tests used:
[1] = Morphology studies (crystallisation attempts, XRPD); format: physicochemical
Description: This is indicative of an advantage over YF476 in terms of the formulation of a suitable pharmaceutical composition. YF476 is crystalline, which contributes to poor solubility and bioavailability. Amorphous YF476 can be used to increase bioavailability, but requires stabilization, which can be achieved as a solid dispersion on hydroxypropyl methyl cellulose by spray-drying.

AGSGR cells = test: Sulphorhodamine-B (SRB) proliferation assay; format: cell-based, human; conditions: G17 10 nM
Experimental: The potency of (TR2) and (TR3) was tested in a sulphorhodamine-B (SRB) proliferation assay in a human gastric adenocarcinoma cell line stably transfected with the human gastrin/CCK2 receptor gene (AGSGR). SRB is a fluorescent dye that binds to proteins, so cells with a high rate of protein synthesis (proliferative cells) will show high levels of fluorescence in the SRB assay. The gastrin fragment G17 has an anti-proliferative effect on AGSGR cells. So, when treated with G17, the cells show lower levels of fluorescence in the SRB assay. (TR2) and (TR3) were compared with the positive controls YF476 and YM022. […] None of the compounds tested affected AGSGR cell proliferation in the absence of G17.

CCK2 (human) = target: T1, CCK2 (human) (Homo sapiens, UniProt P32239); test: CCK2 receptor functional assay (antagonist effect, cAMP, HTRF); format: cell-based
T1 construct: expressed in transfected cells; host or cells: CHO cells
T1 sequence (P32239 1-447): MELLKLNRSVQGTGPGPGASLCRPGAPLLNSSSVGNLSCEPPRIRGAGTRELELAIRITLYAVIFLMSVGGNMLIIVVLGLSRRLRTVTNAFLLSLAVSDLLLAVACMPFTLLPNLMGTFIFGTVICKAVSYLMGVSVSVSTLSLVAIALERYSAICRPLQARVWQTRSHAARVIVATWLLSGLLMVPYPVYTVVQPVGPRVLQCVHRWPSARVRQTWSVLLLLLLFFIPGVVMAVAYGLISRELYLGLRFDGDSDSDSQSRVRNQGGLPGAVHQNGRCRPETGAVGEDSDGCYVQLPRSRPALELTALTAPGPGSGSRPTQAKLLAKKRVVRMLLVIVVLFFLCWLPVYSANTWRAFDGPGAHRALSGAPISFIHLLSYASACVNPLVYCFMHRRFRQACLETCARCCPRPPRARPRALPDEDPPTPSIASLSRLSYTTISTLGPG
Description: (§1) (TR2) and (TR3) were compared with YF476 and YM022 in CCK1 and CCK2 receptor functional assays with the following assay criteria.
(§2) Furthermore, the selectivity of (TR2) for the CCK2 receptor over the CCK1 receptor was 30% higher than the selectivity of YF476. The potency of the antagonists is expressed as IC50, the concentration of antagonist that causes a half-maximum inhibition of the control agonist response. The affinity of the antagonist for the receptor is expressed as KB, the concentration of antagonist, which would occupy 50% of the receptors at equilibrium.

panel of 80 receptors = test: Receptor binding screen, radiolabelled ligands; conditions: scintillation counting; other than CCK2 and CCK1
Experimental: The potential of (TR2) and (TR3) to bind to other cellular and nuclear receptors was tested in a panel of 80 receptors. The assay used radiolabelled receptor ligands (agonist or antagonist, depending on the receptor), and the ability of the test compounds to inhibit ligand binding was measured by scintillation counting.

CCK1 (human) = target: T2, CCK1 (human) (Homo sapiens, UniProt P32238); test: CCK1 receptor functional assay (antagonist effect, cAMP, HTRF); format: cell-based
T2 construct: expressed in transfected cells; host or cells: CHO cells
T2 sequence (P32238 1-428): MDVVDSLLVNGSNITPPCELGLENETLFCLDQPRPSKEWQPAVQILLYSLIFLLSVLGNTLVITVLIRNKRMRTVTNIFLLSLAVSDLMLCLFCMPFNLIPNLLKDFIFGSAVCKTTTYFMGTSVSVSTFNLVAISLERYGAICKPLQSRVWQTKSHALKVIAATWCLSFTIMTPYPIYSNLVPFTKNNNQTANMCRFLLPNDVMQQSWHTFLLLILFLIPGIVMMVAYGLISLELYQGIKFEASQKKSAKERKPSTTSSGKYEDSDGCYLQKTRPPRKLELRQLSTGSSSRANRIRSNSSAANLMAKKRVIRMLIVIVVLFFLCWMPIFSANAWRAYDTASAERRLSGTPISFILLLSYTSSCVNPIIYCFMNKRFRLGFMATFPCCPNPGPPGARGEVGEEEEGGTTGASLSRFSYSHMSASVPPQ
Description: as §1
as §2, with “The” for “Furthermore, the selectivity of (TR2) for the CCK2 receptor over the CCK1 receptor was 30% higher than the selectivity of YF476. The”

[2] = system: increase in H+ concentration of gastric aspirate induced by pentagastrin; test: Pharmacodynamic effect in healthy subjects (pentagastrin infusion); format: in vivo, human
Experimental: Pentagastrin induces gastric acid secretion, and thereby increases H^+ concentration.
In further clinical studies, in healthy volunteers, single oral doses of 5, 15, 50 and 100 mg of (TR2) or 5, 15, 25 and 50 mg (TR2-A) were administered in conjunction with pentagastrin infusion (i.v. dose 0.6 μg/kg/h for 2 h).
YF476 with pentagastrin infusion.

[3] = Pharmacokinetics in healthy subjects; conditions: human, in vivo, po
Experimental: In an initial study, healthy volunteers took a single oral dose of 100 mg (TR2) as an active pharmaceutical ingredient (API) in a capsule. Plasma concentrations were measured.
In further clinical studies, healthy volunteers (n=8) took single oral doses of 5, 15, 50 and 100 mg (TR2) as an active pharmaceutical ingredient (API) in a capsule. Plasma concentrations were measured.
Healthy volunteers (n=8) took single oral doses of 5, 15, 25 and 50 mg (TR2-A) as API in a capsule (TR2-A (crystalline) in hard gelatin capsules with no excipient, no processing of the API). Plasma concentrations of (TR2) and (TR2-A) were measured. The area under the curve of plasma concentrations of (TR2) after a single oral dose of 50 mg of (TR2-A) API (AUC0-24 h=212.5) was about the same as that observed for a similar formulation of a single oral dose of (TR2) 100 mg (AUC0-24 h=241.5). […] Moreover, the plasma concentrations of (TR2-A) were low (AUC0-24 h<10), showing that (TR2-A) is acting as a prodrug for (TR2).

[4] = Solubility study in Britton-Robinson's buffer (HPLC-UV); format: physicochemical
Experimental: The test compound (2.5 mg of solid; n=1) was weighed in a clear glass vial and Britton-Robinson's buffer (0.5 mL) was added (pH 2.01, pH 3.06, pH 4.06, pH 5.08, pH 5.99, pH 6.98, and pH 8.16). The solution was agitated at ambient temperature overnight using a vial roller system, and then filtered (0.45 µm pore size; without pre-saturation). Two aliquots (50 μL) were sampled from the filtrate and diluted with one volume of 0.1 N hydrochloric acid and methanol (1:1 v/v) before analysis by HPLC-UV. A standard was prepared in DMSO at 10 mg/mL (n=1) which was then diluted 10-fold in 0.1 N hydrochloric acid and methanol (1:1 v/v) to give a 1 mg/mL solution. The concentration of test compound in the filtrate was quantified relative to the concentration standard.
Analysis was done using a gradient HPLC-UV system with a total cycle time of 6 min. The UV detection between 220 nm and 300 nm was done using a photodiode array detector. Total response was monitored.
The values given in the table above are for crystalline YF476 and (TR2-A) and amorphous (TR1).

Structure (SMILES) | preferred solid state [1] | CCK2 receptor antagonism (in words) (CCK2 (human)) | inhibition of ligand binding in panel of 80 receptors (panel of 80 receptors) | CCK1 receptor antagonism (in words) (CCK1 (human)) | inhibition of the anti-proliferative effects of G17 (AGSGR cells; compound 100 nM) | other results
CNc1cccc(NC(=O)N[C@H]2N=C(c3ccccn3)c3ccccc3N(CC(=O)C(C)(C)CO)C2=O)c1 [TR3] | prefer an amorphous state over a crystalline state | potent CCK2 receptor antagonists | No significant receptor binding | less potent CCK1 receptor antagonists | – | inhibition of the anti-proliferative effects of G17 (AGSGR cells; compound 500 nM): had the same effect
CNc1cccc(NC(=O)N[C@@H]2N=C(c3ccccn3)c3ccccc3N(CC(=O)C(C)(C)C)C2=O)c1 [YF476, reference compound] | – | – | – | – | completely inhibited | –
CNc1cccc(NC(=O)N[C@@H]2N=C(c3ccccn3)c3ccccc3N(CC(=O)C(C)(C)COC(C)=O)C2=O)c1 [TR2-A, (R)-1-[1-(4-Acetoxy-3,3-dimethyl-2-oxo-butyl)-2-oxo-5-pyridin-2-yl-2,3-dihydro-1H-benzo[e][1,4]diazepin-3-yl]-3-(3-methylamino-phenyl)-urea] | – | – | – | – | – | potency as a CCK2 receptor antagonist in healthy subjects (in words) [2]: greater than that of both (TR2) and YF476
Cc1cccc(NC(=O)N[C@@H]2N=C(c3ccccc3)c3ccccc3N(CC(=O)c3ccccc3C)C2=O)c1 [YM022, reference compound] | – | – | – | – | completely inhibited | –
CNc1cccc(NC(=O)N[C@@H]2N=C(c3ccccn3)c3ccccc3N(CC(=O)C(C)(C)CO)C2=O)c1 [TR2, (R)-1-[1-(4-Hydroxy-3,3-dimethyl-2-oxo-butyl)-2-oxo-5-pyridin-2-yl-2,3-dihydro-1H-benzo[e][1,4]diazepin-3-yl]-3-(3-methylamino-phenyl)-urea] | prefer an amorphous state over a crystalline state | potent CCK2 receptor antagonists | No significant receptor binding | less potent CCK1 receptor antagonists | completely inhibited | solid state by XRPD analysis [1]: amorphous state; AUC relative to YF476 100 mg [3]: about twice; selectivity for the CCK2 receptor over the CCK1 receptor higher than the selectivity of YF476 (CCK2 (human)): 30%; less potent than YF476 and YM022 in the CCK2 assay (CCK2 (human); IC50 compared): about 5 fold; affinity for the CCK2 receptor lower than that of YF476 (CCK2 (human); KB compared): about 5 fold; affinity for the CCK2 receptor relative to YM022 (CCK2 (human); KB compared): twice
CNc1cccc(NC(=O)NC2N=C(c3ccccn3)c3ccccc3N(CC(=O)C(C)(C)CO)C2=O)c1 (racemic) [TR1] | prefer an amorphous state over a crystalline state | – | – | – | – | aqueous solubility compared (in words) [4]: more soluble in aqueous solution than YF476
